From US20240027479A1, “A Comprehensive Breath Test that Confirms Recent Use of Inhaled Cannabis within the Impairment Window” (RCU Labs, Inc., priority 2018, published 2024)
Where “and” joins values, the source holds several entries; their conditions need not be identical. Equal entries are not always repeated. Where two headings read alike, the source gives them in different places.

Columns and labels:
[1] = Cannabinoids and Δ^9-THC metabolites in capillary blood (LC-HRMS); settings: pre-smoking
Excerpt: The complex nature of cannabinoid pharmacokinetics and pharmacodynamics calls for a new approach for effectively determining recent use of cannabis within the impairment window. We sought to develop a multiple-parameter test based on pharmacological changes in Δ^9-THC and its metabolites in blood over time. This approach requires the collection of two samples separated by a known time interval, which is a critical difference compared to current blood testing methods that rely on the collection of a single sample. The two-sample strategy makes possible the detection of Δ^9-THC in its distribution phase where the half-life is very short [Moeller M R. et al., J Forensic Sci 37:969-83 (1992); Wall M E. et al., Clin Pharmacol Ther 34:352-63 (1983)], which occurs only within the first few hours after smoking, and for the evaluation of how Δ^9-THC metabolite levels in blood are changing with time relative to Δ^9-THC. A liquid chromatography high-resolution mass spectrometry (LC-HRMS) bioanalytical method for the quantification of cannabinoids in microsamples (50 μL) of whole blood was developed and validated for this purpose [DeGregorio M W. et al., J AOAC Int 103:725-35 (2020)].
A total of 92 subjects were included in clinical trials designed to evaluate the feasibility of the described method for determining recent cannabis use (blood-based study in 48 subjects) and recent cannabis use and impairment (breath- and blood-based study in 44 subjects). Each subject was given a single cannabis cigarette and instructed to smoke as much of it as possible within a 10-minute period. Cigarettes containing 500 mg of dried cannabis flower were prepared immediately before each smoking session. During the studies, subjects were given a variety of cannabis chemovars to smoke, with Δ^9-THC content ranging from a low of 8.5% to a high of 28.4%. A wide variety of chemovars was included to account for the variability in Δ^9-THC potencies available in numerous cannabis retail establishments in the various U.S. states where recreational and/or medicinal cannabis has been legalized. Capillary blood samples ([…] collected at various time points prior to smoking and up to 200 minutes after smoking, were obtained from a total of 92 subjects using a variety of methods including lancets and two types of automated blood collection devices. Exhaled breath samples were collected from a total of 44 subjects at various time points prior to smoking and up to 240 minutes post-smoking. Breath samples were collected using devices equipped with electrostatic polymer filters and that are designed to collect approximately 20 L of exhaled breath through normal breathing. The time required for breath sample collection was approximately 2-3 minutes. A total of 74 subjects were asked to self-assess their level of impairment before smoking and at each designated sampling time point after smoking based on a scale ranging from 0 (not impaired) to 10 (very impaired) as shown in FIG. 2. As a physical indicator of impairment, 44 subjects were evaluated for horizontal gaze nystagmus.
One of the first endpoints investigated during clinical development of the recent use test method was whether there is any relationship between blood Δ^9-THC levels and impairment. Prior to smoking, Δ^9-THC blood concentrations were evaluated in a group of 30 subjects before and up to 200 minutes after smoking a 500-mg cannabis cigarette and compared to a common legal limit (5 ng/mL) for establishing driver impairment due to cannabis.

[2] = Presence of cannabinoids in exhaled breath before and after smoking (LC-HRMS); type: in vivo, human
Method: (§1) The positive recent use test results outside of the three-hour impairment window based on blood sampling alone led to the incorporation of a second testing matrix, exhaled breath, to strengthen the results of the test method so that cannabis users who are within the impairment window after smoking can be more accurately identified. For this purpose, a total of 44 additional subjects were evaluated in a smoking study in which both exhaled breath and blood samples were collected and then analyzed by LC-HRMS for cannabinoids and Δ^9-THC metabolites. As with the 48-subject blood-based study, subjects were given a 500-mg cannabis cigarette to smoke, and breath and blood samples were collected at various time points before and after smoking.

[3] = Cannabinoid half-lives in exhaled breath, multi-point breath sampling; type: in vivo, human; settings: for Cannabinoid Half-Lives (min) in breath, back-to-back sampling: individual subject; for half-lives observed in exhaled breath: approximate, summary statement; for half-life: human, exhaled breath, inhaled, 500 mg
Method: as §1
These included the presence of CBN, CBC, CBG, Δ^9-THCV, and CBGA, and short half-lives (<60 minutes) for Δ^9-THC, CBN, CBC, CBG, and Δ^9-THCV (see Table 5 below). […] Pre-smoking, half-lives were calculable for Δ^9-THC in only three subjects.
Evidence of recent cannabis use by inhalation through smoking or vaping dissipates rapidly in exhaled breath, and thus allowing 20 minutes between breath samplings, which was employed in the blood-based study and for most of the subjects in the blood and breath-based study, may result in the loss of valuable data. In the last nine subjects involved in the exhaled breath study, a back-to-back sample collection strategy was employed whereby two exhaled breath samples were collected in quick succession at 20 and 40 minutes post-smoking. Approximately two minutes elapsed between the collection of each sample. The very short half-lives observed for Δ^9-THC, CBN, and other cannabinoids (approximately five minutes or less) in exhaled breath would allow for rapid sampling (see Table 6 below).

[4] = Stability of target analytes in the breath collection device; type: physicochemical
Excerpt: In particular, CBN, CBG, and Δ^9-THCV all have a much greater incidence in breath during peak impairment (the first hour after smoking) compared to pre-smoking. […] Stability of the analytes within the breath collection devices was previously established (see Table 4 below).

[5] = Breath/blood Δ^9-THC ratio; settings: all 44 subjects
Excerpt: We hypothesized that the incorporation of both exhaled breath and blood into a comprehensive recent cannabis use test would confirm recent use of inhaled cannabis within the impairment window, improving the accuracy of the two-point breath testing method. For this purpose, blood samples were collected from the 44 subjects in addition to breath samples and analyzed for Δ^9-THC and other cannabinoids. […] This ratio was computed by dividing the Δ^9-THC peak area ratio to the internal standard in breath by the corresponding peak area ratio in blood.

[6] = separate 20-subject and 23-subject studies (Lynch; Olla); cited from earlier work
[7] = Day 3, breath collection device
[8] = Day 7, breath collection device
[9] = Day 10, breath collection device
[10] = Day 14, breath collection device
[11] = Day 30, breath collection device
[12] = 20 Minutes Post-Smoking, read-out: Cannabinoid Half-Lives (min) in breath, back-to-back sampling, Average
[13] = 40 Minutes Post-Smoking, read-out: Cannabinoid Half-Lives (min) in breath, back-to-back sampling, Average
[14] = 0-10 Minutes Post-Smoking, read-out: Average Half-Life (minutes ± SD) in breath
[15] = 0-20 Minutes Post-Smoking, read-out: Average Half-Life (minutes ± SD) in breath

SMILES | detection in subjects' blood samples at baseline prior to smoking [1] | Presence in exhaled breath, Percent (%) Positivity ([2]; >60 minutes after smoking) | Presence in exhaled breath, positive/evaluable subjects ([2]; >60 minutes after smoking) | Presence in exhaled breath, positive/evaluable subjects ([2]; Baseline (Pre-smoking)) | Presence in exhaled breath, Percent (%) Positivity ([2]; ≤60 minutes after smoking) | Presence in exhaled breath, positive/evaluable subjects ([2]; ≤60 minutes after smoking) | Cannabinoid Half-Lives (min) in breath, back-to-back sampling ([3]; 20 Minutes Post-Smoking) | Cannabinoid Half-Lives (min) in breath, back-to-back sampling ([3]; 40 Minutes Post-Smoking) | half-lives observed in exhaled breath [3] | Analyte Stability (%) at Room Temperature (20-25° C.) [4, 7] | Analyte Stability (%) at Room Temperature (20-25° C.) [4, 8] | Analyte Stability (%) at Room Temperature (20-25° C.) [4, 9] | Analyte Stability (%) at Room Temperature (20-25° C.) [4, 10] | Analyte Stability (%) at Room Temperature (20-25° C.) [4, 11] | Presence in exhaled breath, Percent (%) Positivity ([2]; Baseline (Pre-smoking)) | half-life [3, 12] | half-life [3, 13] | half-life [3, 14] | half-life [3, 15] | other results
CCCCCc1cc(O)c2c(c1)OC(C)(C)[C@@H]1CCC(C)=C[C@@H]21 [Δ^9-THC, Δ^9-tetrahydrocannabinol] | detected | (92.5%) | 37/40 | 23/34 | (100%) | 40/40 | 1.9 min (2×) and 2.3 min and 2.1 min and 2.9 min and 2.8 min and 1.0 min and 1.4 min and 1.6 min and 7.3 min and 3.8 min and 11.8 min and 1.2 min and 0.9 min | 2.2 min and 9.9 min and 3.7 min and 5.9 min and 8.6 min | five | 91.3% | 81.2% | 82.9% | 66.2% | 55.6% | – | – | – | – | – | average baseline Δ^9-THC concentration in blood ([1]; 12-24 h abstinence, n=30): 10.5 ± 15 ng/mL; baseline Δ^9-THC levels in blood ([1]; 16 of 30 subjects): exceeded 5 ng/mL; median baseline Δ^9-THC concentration in blood ([1]; n=30): 6.4 ng/mL; Average Half-Life (minutes ± SD) in breath ([3]; 0-10 Minutes Post-Smoking): 4.4 ± 2.2 min; Average Half-Life (minutes ± SD) in breath ([3]; 0-20 Minutes Post-Smoking): 4.2 ± 2.1 min; Average Half-Life (minutes ± SD) in breath ([3]; 20-40 Minutes Post-Smoking): 8.1 ± 2.3 min; Average Half-Life (minutes ± SD) in breath ([3]; 20-60 Minutes Post-Smoking): 12.8 ± 8.8 min; Cannabinoid Half-Lives (min) in breath, back-to-back sampling, Average ([3]; 20 Minutes Post-Smoking): 3.5 min and 2.2 min; Average Half-Life (minutes ± SD) in breath ([3]; 40-60 Minutes Post-Smoking): 24.4 ± 25.4 min; Cannabinoid Half-Lives (min) in breath, back-to-back sampling, Average ([3]; 40 Minutes Post-Smoking): 6.1 min; Average Half-Life (minutes ± SD) in breath ([3]; 60-80 Minutes Post-Smoking): 35.0 ± 41.7 min; Average Half-Life (minutes ± SD) in breath ([3]; Pre-Smoking): 28.8 ± 28.7 min; breath/blood Δ^9-THC ratio ([5]; immediately after smoking): > 2; breath/blood Δ^9-THC ratio ([5]; within the first hour after smoking): ≥ 2; pre-smoking detection rates of Δ^9-THC in breath [6]: 100%
CCCCCc1cc(O)c2c(c1)OC(C)(C)c1ccc(C)cc1-2 [CBN, cannabinol] | detected | (10.0%) | 4/40 | 1/34 | (92.5%) | 37/40 | 2.0 min and 2.3 min and 1.8 min and 6.4 min and 1.1 min | 2.9 min and 4.8 min and 10.7 min | five | 104.5% | 100.0% | 107.3% | 87.9% | 74.4% | (2.9%) | 2.7 min | 6.1 min | – | – | half-life ([3]; 20-60 Minutes Post-Smoking, read-out: Average Half-Life (minutes ± SD) in breath): 35.2 min; half-life ([3]; 40-60 Minutes Post-Smoking, read-out: Average Half-Life (minutes ± SD) in breath): 12.8 min
CCCCCc1cc(O)c2c(c1)OC(C)(CCC=C(C)C)C=C2 (stereo not shown) [CBC, cannabichromene] | detected | (0%) | 0/40 | 0/34 | (97.5%) | 39/40 | 2.2 min and 2.0 min and 2.7 min and 1.3 min and 11.8 min and 1.0 min | 2.3 min and 3.5 min and 5.2 min | – | 100.6% | 89.1% | 89.9% | 82.2% | 75.6% | (0%) | 3.3 min | 3.6 min | 3.9 ± 2.5 min | 3.8 ± 2.3 min | –
CCCCCc1cc(O)c(C/C=C(\C)CCC=C(C)C)c(O)c1 [CBG, cannabigerol] | detected | (2.5%) | 1/40 | 2/34 | (92.5%) | 37/40 | 1.6 min and 1.3 min and 2.6 min and 2.1 min and 0.7 min | – | – | 97.5% | 87.6% | 97.8% | 75.0% | 56.5% | (5.9%) | 1.7 min | – | 3.6 ± 2.1 min | 3.7 ± 3.1 min | –
